The values below come from patent US20180289655A1, “Methods and Compositions for the Intravenous Administration of Fumarates for the Treatment of Neurological Diseases” (Biogen MA Inc., priority 2015, published 2018).

A short description of data set [1]: (^14C)DMF distribution viewed in sagittal section (QWBA). Format: in vivo, mice. Conditions: 10 and 60 minutes.
For data set [2], the system named is Akr1b8. Put plainly: qRT-PCR transcript fold-change in tissues after DMF or MMF dosing. Type of data set: in vivo, C57BL/6 mice. Conditions: MMF IV 30 mpk, Study 2. Here is the method: (§1) For RNA preparation, frozen tissues were placed in 2 mL RNAse-free 96-well blocks with 1.5 mL QIAzol Lysis Reagent (QIAgen) and a 3.2 mm stainless steel bead (BioSpec Products, Bartlesville, Okla.). Tissues were disrupted for four cycles of 45 seconds in a Mini-Beadbeater (Biospec Products). RNA was extracted with chloroform and the aqueous phase was mixed with an equal volume of 70% ethanol. Extracted RNA was applied to RNeasy 96 plates and purified by the spin method according to the manufacturer's protocol (RNeasy 96 Universal Tissue Protocol, QIAgen, Hilden Germany).
(§2) Samples were reverse-transcribed into cDNA according to the manufacturer protocols using the High Capacity cDNA Reverse Transcription Kit (Life Technologies, Carlsbad, Calif.) and analyzed by qRT-PCR. Mouse target gene primers and 6-FAM™ dye-labeled TaqMan® MGB™ probes (Life Technologies) were used. Reactions containing 100 ng of cDNA, 900 nM of each primer, and 250 nM TaqMan probes were cycled on a QuantStudio 12 k-flex system (Life Technologies) once for 10 minutes at 95° C., followed by 40 cycles of 95° C. for 10 seconds and 60° C. for 1 minute. All samples were measured in triplicate with Gapdh as a normalizing gene. Taqman primer/probe sets from Life Technologies included: Akr1b8 (Mm00484314_m1); Gapdh (Mm03302249_g1); Gclc (Mm00802655_m1); Hmox1 (Mm00516005_m1); Nqo1 (Mm01253561_m1); and Osgin1 (Mm00660947_m1). Comparative CT method was used to calculate fold changes and samples were normalized relative to time-matched vehicle control.
(§3) At the 10-minute time point, 4 animals from each group were sacrificed, with plasma and tissues (brain, jejunum and kidney) collected to determine MMF exposure. Two hours after dosing, the remaining 4 animals were sacrificed, and plasma and tissues were collected. Tissue samples from the 2-hour time point were divided, with half of each sample used for MMF exposure analysis, and half for RNA extraction and qRT-PCR to evaluate the expression of Nrf2 target genes.
(§4) Ten minutes after dosing, 4 animals from each group were sacrificed, and plasma and tissues (brain, kidney, jejunum and spleen) were collected to quantify MMF exposure levels, as well as whole blood to perform CBC. Two hours post-dose, another 4 animals from each group were sacrificed, and plasma, whole blood, and tissues were collected. Tissue samples from the 2-hour time point were split, with half of each sample used for MMF exposure analysis, and half for RNA extraction/qRT-PCR to evaluate the expression of Nrf2 target genes. Six hours after dosing, the last 4 animals from each group were sacrificed, and whole blood and tissues were collected.
(§5) Table 7 is a summary table of fold changes, relative to time-matched vehicle controls, for indicated genes in indicated tissues. Values indicate the mean fold-change±the standard deviation (n=4). Changes that were significant from vehicle are indicated in bold (one way ANOVA with Tukey's multiple comparison test).
(§6) A CBC with differential panel was performed at 10 minutes post-last dose via facial vein bleeding, and at 2 hours after the last dose, pharmacodynamic Nrf2 transcriptional responses were analyzed in tissues from the same animals. Histopathology was also performed on regions of the tail in a pilot toxicology study.
For orientation: Real-time PCR tracks product formation cycle by cycle.

Data set [3] relates to Hmox1. The data set is described as above. Format: in vivo, C57BL/6 mice. Conditions: MMF IV 30 mpk, Study 2. On the procedure:
as §1, §2, §3, §4, §5, §6

The test system of data set [4] is Gclc. The description is as above. Format: in vivo, C57BL/6 mice. Particulars: MMF IV 30 mpk, Study 2. Here is the method:
as §1, §2, §3, §4, §5, §6

Data set [5] concerns blood cell populations. Put plainly: Complete blood count (CBC) with differential after IV dosing. Format: in vivo, C57BL/6 mice. Particulars: Study 2, single IV dose DMF 30 mg/kg or MMF 27.08 mg/kg. On the procedure:
Whole blood samples (250 μL) were collected in EDTA tubes at indicated time points after dosing, and were maintained at 4° C. until analysis for CBC with differential at Charles River Laboratories (analyzed within 24-36 hours from time of collection).
Statistical analyses on blood cell fractions were not completed due to the overall variability and low number of replicates for the samples in this pilot study.
as §6

The nature of data set [6]: MMF exposure in plasma and tissues after DMF PO/IV or MMF IV (LC-MS/MS). Type of data set: in vivo, C57BL/6 mice. Here is the method:
Aliquots (25 μL) of either plasma or tissue homogenate samples were extracted by protein precipitation with acetonitrile containing 4C13-MMF as the internal standard. For tissue samples, aliquots of homogenization solution (plasma with 12.5 mg/mL of NaF) were added to the tissue samples. The tissue samples were homogenized at 6.5 m/s for 60 seconds on a Fast Prep Tissue Homogenizer prior to protein precipitation. Concentrations of MMF in plasma, brain, jejunum and kidney samples were determined using qualified LC-MS/MS assays in the respective matrices. Data collections and integrations were accomplished using an API 5500 triple quadrupole mass spectrometer with a turbo ion spray interface (AB Sciex, Foster City, Calif.), and Analyst software (version 1.6.1). The peak area ratios of MMF relative to its internal standard were used to construct a standard curve using a quadratic regression with a 1/x^2 weighting. The lower limits of quantitation (LLOQ) were 1 ng/mL for the three tissue assays and 10 ng/mL for the plasma assay, respectively. The performances of the assays were monitored by the precision and accuracy of the standards and quality control samples.
MMF exposure levels were evaluated 10 minutes and 2 hours after dosing, while pharmacodynamic transcriptional responses were analyzed at 2 hours post-dose.
as §3
MMF exposure levels were evaluated 10 minutes and 2 hours after dosing, while transcriptional pharmacodynamic responses were analyzed at 2 and 6 hours post-dose. A complete blood count (CBC) with differential panel was performed at 10 minutes, 2 hours, and 6 hours post-dose.
as §4

Data set [7] concerns Nqo1. Briefly: qRT-PCR transcript fold-change in tissues after DMF or MMF dosing. Format: in vivo, C57BL/6 mice. Conditions: MMF IV 30 mpk, Study 2; for Nqo1 fold change vs vehicle, jejunum / Nqo1 fold change vs vehicle, kidney: 30 mg/kg. On the procedure: as §1
as §2, with “control. […]” for “control.”
as §4
(§7) Table 7 is a summary table of fold changes, relative to time-matched vehicle controls, for indicated genes in indicated tissues. Values indicate the mean fold-change±the standard deviation (n=4). Changes that were significant from vehicle are indicated in bold (one way ANOVA with Tukey's multiple comparison test). […]

The test system of data set [8] is Osgin1. Described as above. Format: in vivo, C57BL/6 mice. Particulars: MMF IV 30 mpk, Study 2; for Osgin1 fold change vs vehicle, jejunum / Osgin1 fold change vs vehicle, kidney: 30 mg/kg. Here is the method: as §1
as §2, with “control. […]” for “control.”
as §4, §7

Data set [9] is described as follows: PET/MR imaging of (^11C)DMF tissue distribution after oral or intravenous administration. Format: in vivo, CD1 mice. Here is the method: To determine the localization and retention of DMF administered by different routes in vivo, mice were administered isotopically labeled DMF either orally or through tail vein injections. […] Acquired images from PET experiments were analyzed using inviCRO software. […] All animals were anaesthetized during image acquisition. […] The imaging data from the three groups of treated animals were quantified according to tissue type using inviCRO image analysis software. Regions of Interest (ROIs) for the brain, heart, liver, kidneys, scapular muscle, and whole body were defined by fitting ellipsoids of fixed volume to the regions. The scapular muscle ROI was hand-drawn and is not representative of all mouse muscle, but is composed of only a small region of its respective ROI.

“And” between values parts separate entries of the source, which are not always exact repeats. Identical values can stand only once. “Also recorded” adds a separate entry of the source. Counter-ions that a name gives are not always drawn.

For `COC(=O)/[14CH]=[14CH]/C(=O)OC` [(^14C)DMF, [2,3-^14C] DMF], the “(^14C) signal in sagittal section” value in data set [1] (IV 0.5 mg/kg) was “displayed signal in the kidneys and brain”; in data set [1] (PO 0.5 mg/kg) it was “had less signal in the brain”.
Take `COC(=O)/C=C/C(=O)O` [MMF, monomethyl fumarate]: in data set [2] (2 hr), the “Akr1b8 fold change vs vehicle, brain” value was 1.0 ± 0.2 fold and the “Akr1b8 fold change vs vehicle, kidney” value came to 1.2 ± 0.1 fold. Moreover, the “Akr1b8 fold change vs vehicle, jejunum” value in data set [2] (2 hr, 30 mg/kg) was 2.4±0.7 fold. In data set [2] (6 hr), the “Akr1b8 fold change vs vehicle, brain” value was 1.0 ± 0.1 fold and the “Akr1b8 fold change vs vehicle, jejunum” value is given as 2.9 ± 1.2 fold. Moreover, the “Akr1b8 fold change vs vehicle, kidney” value in data set [2] (6 hr, 30 mg/kg) is reported as 1.5±0.1 fold. In addition, in data set [3] (2 hr), the “Hmox1 fold change vs vehicle, brain” value is reported as 1.0 ± 0.1 fold; the “Hmox1 fold change vs vehicle, jejunum” value is reported as 0.9 ± 0.1 fold; the “Hmox1 fold change vs vehicle, kidney” value amounted to 1.6 ± 0.3 fold. Further, in [3] (6 hr), the “Hmox1 fold change vs vehicle, brain” value was 1.0 ± 0.0 fold; the “Hmox1 fold change vs vehicle, jejunum” value is on record as 1.1 ± 0.1 fold; the “Hmox1 fold change vs vehicle, kidney” value stood at 3.3 ± 0.8 fold. In data set [4] (2 hr), the “Gclc fold change vs vehicle, brain” value is listed as 1.0 ± 0.0 fold and the “Gclc fold change vs vehicle, jejunum” value turned out to be 1.2 ± 0.3 fold. In addition, the “Gclc fold change vs vehicle, kidney” value in data set [4] (2 hr, 30 mg/kg) stood at 1.9±0.7 fold. In addition, in [4] (6 hr), the “Gclc fold change vs vehicle, brain” value stood at 1.0 ± 0.1 fold. Besides, in data set [4] (6 hr, 30 mg/kg), the “Gclc fold change vs vehicle, jejunum” value was 1.5±0.1 fold and the “Gclc fold change vs vehicle, kidney” value is 2.3±0.6 fold. Besides, the “Reduction in white blood cell counts (neutrophils, lymphocytes, monocytes, eosinophils, basophils)” value in data set [5] (2-hour time point) is listed as “did not specifically coincide with DMF or MMF treatment”. Besides, the “Effect on red blood cells, hemoglobin, hematocrit, mean corpuscular volume, platelets” value in [5] (10 minutes, 2 and 6 hours) is “no effect on red blood cells, hemoglobin, hematocrit, mean corpuscular volume, or platelets”. Moreover, the Kp at 10 min in data set [6] (C57BL/6, mouse, brain, Study 2, MMF IV 27.08 mg/kg, 10 minutes, read-out: Brain to plasma MMF ratio (tissue [MMF]/plasma [MMF]*100)) was 7.2 ± 3. Besides, the concentration at 10 min in data set [6] (C57BL/6, mouse, plasma, Study 2, MMF IV 27.08 mg/kg, 10 minutes, n=4, read-out: MMF level in plasma) was 13000 ng/mL and 100 µM. Moreover, in data set [6] (Study 2, 10 minutes, not significant), the “Difference in brain MMF levels, animals receiving MMF compared to DMF via IV dosing” value is 31%. For the same compound, the “MMF level in plasma or any tissues” value in data set [6] (Study 2, 2 hours, DMF 30 mg/kg or MMF 27.08 mg/kg IV) is listed as “no detectable MMF in plasma or in any tissues”. Further, in data set [6] (Study 2, IV, 10 minutes), the “MMF levels in kidney, jejunum and spleen, DMF versus MMF” value is listed as “no significant differences were noted in MMF levels”; the “Tissue penetration ratios in kidney, jejunum or spleen, DMF versus MMF” value is given as “no significant differences in tissue penetration ratios”. Moreover, in data set [7] (2 hr), the “Nqo1 fold change vs vehicle, brain” value was 1.1 ± 0.1 fold; the “Nqo1 fold change vs vehicle, jejunum” value was found to be 1.5±0.2 fold; the “Nqo1 fold change vs vehicle, kidney” value came to 1.6±0.4 fold. In data set [7] (6 hr), the “Nqo1 fold change vs vehicle, brain” value is recorded as 1.2 ± 0.1 fold; the “Nqo1 fold change vs vehicle, jejunum” value is given as 1.7±0.1 fold; the “Nqo1 fold change vs vehicle, kidney” value is given as 2.3±0.3 fold. In addition, in data set [8] (2 hr), the “Osgin1 fold change vs vehicle, brain” value worked out at 1.9 ± 0.3 fold; the “Osgin1 fold change vs vehicle, jejunum” value stood at 1.6±0.1 fold; the “Osgin1 fold change vs vehicle, kidney” value is on record as 2.4±0.8 fold. Besides, in data set [8] (6 hr), the “Osgin1 fold change vs vehicle, brain” value turned out to be 1.1 ± 0.1 fold; the “Osgin1 fold change vs vehicle, jejunum” value was found to be 1.2±0.1 fold; the “Osgin1 fold change vs vehicle, kidney” value turned out to be 1.4±0.0 fold.
(^11C) dimethyl fumarate [(^11C)DMF]: in data set [9] (IV 0.5 mg/kg, imaged up to 90 minutes, 0.5 mg/kg), the “PET signal distribution in tissues” value was “positive signal throughout various tissues of the body including the brain and heart; also recorded: signal was higher in most tissues; also recorded: localized in numerous tissues, including the brain, as early as 30 seconds after administration”. Besides, the “PET signal in brain regions” value is recorded as “high levels of signal in all regions of the brain throughout the observation period; also recorded: all emitted a strong signal as compared to olfactory regions” in [9] (IV 0.5 mg/kg, 0.5 mg/kg) and “almost no signal was detected in any region; also recorded: significantly lower levels of signal throughout the brain” in [9] (PO 0.5 mg/kg or 200 mg/kg).
